US11230717B2, “Plants having increased tolerance to herbicides” (BASF SE, priority 2013, dated 2022)

Tests used:
Arabidopsis HPPD = molecular target: T1, Arabidopsis HPPD (Arabidopsis thaliana, UniProt P93836); assay: HPPD activity assay (homogentisic acid by HPLC), in vitro characterization; type: biochemical
T1 construct: His6 (N); made in house; host or cells: E. coli BL21 (DE3)
T1 sequence (P93836 1-445): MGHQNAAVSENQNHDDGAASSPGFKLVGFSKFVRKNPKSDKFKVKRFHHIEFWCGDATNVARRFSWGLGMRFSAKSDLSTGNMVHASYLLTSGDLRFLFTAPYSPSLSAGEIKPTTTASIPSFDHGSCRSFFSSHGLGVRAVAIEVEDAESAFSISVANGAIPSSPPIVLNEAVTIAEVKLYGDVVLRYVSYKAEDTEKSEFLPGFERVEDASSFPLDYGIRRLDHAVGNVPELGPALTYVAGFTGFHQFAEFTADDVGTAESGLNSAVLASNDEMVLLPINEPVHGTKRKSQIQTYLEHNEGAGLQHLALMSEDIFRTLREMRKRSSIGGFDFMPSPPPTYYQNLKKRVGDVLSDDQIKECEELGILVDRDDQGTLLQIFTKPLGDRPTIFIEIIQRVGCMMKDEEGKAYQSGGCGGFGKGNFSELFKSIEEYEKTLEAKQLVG
Protocol: (§1) HPPD produces homogentisic acid and CO2 from 4-hydroxyphenylpyruvate (4-HPP) and O2. The activity assay for HPPD is based on the analysis of homogentisic acid by reversed phase HPLC.
(§2) The assay mixture can contain 150 mM potassium phosphate buffer pH 7.0, 50 mM L-ascorbic acid, 100 μM Catalase (Sigma-Aldrich), 1 μM FeSO4 and 0.2 units of purified HPPD enzyme in a total volume of 505 μl. 1 unit is defined as the amount of enzyme that is required to produce 1 nmol of HGA per minute at 20° C.
(§3) After a preincubation of 30 min the reaction is started by adding 4-HPP to a final concentration of 0.05 mM. The reaction is allowed to proceed for 45 min at room temperature. The reaction is stopped by the addition of 50 μl of 4.5 M phosphoric acid. The sample is filtered using a […] pore size PVDF filtration device.
(§4) 5 μl of the cleared sample is analyzed on an UPLC HSS T3 column (particle size 1.8 μm, dimensions 2,1×50 mm; Waters) by isocratic elution using 90% 20 mM NaH2PO4 pH 2.2, 10% methanol (v/v).
(§5) HGA is detected electrochemically at 750 mV (mode: DC; polarity: positive) and quantified by integrating peak areas (Empower software; Waters).
(§6) Inhibitors are dissolved in DMSO (dimethylsulfoxide) to a concentration of 0.5 mM. From this stock solution serial five-fold dilutions are prepared in DMSO, which are used in the assay. The respective inhibitor solution accounts for 1% of the assay volume. […] Activities are normalized by setting the uninhibited enzyme activity to 100%. IC50 values are calculated using non-linear regression.
(§7) Using methods which are described in the above examples or well known in the art, purified, recombinant wildtype HPPD enzymes are characterized with respect to their kinetic properties and sensitivity towards HPPD inhibiting herbicides. Apparent michaelis constants (Km) and maximal reaction velocities (Vmax) are calculated by non-linear regression with the software GraphPad Prism 5 (GraphPad Software, La Jolla, USA) using a substrate inhibition model. […] Weighted means (by standard error) of Km and IC50 values are calculated from at least three independent experiments. […] To assess the potential performance of a herbicide tolerance trait a tolerance index (TI) is calculated using the following formula: […]

[1] = molecular target: T2, Hordeum HPPD (SEQ ID NO:2) (Hordeum vulgare, UniProt O48604, A164G/R146V/R147D/R148G); assay: HPPD activity assay, in vitro characterization; type: biochemical
T2 construct: subcloned into a modified pET24D (Novagen) expression vector resulting in N-terminally His-tagged expression constructs; His (N); made in house; host or cells: E. coli BL21 (DE3)
T2 sequence (O48604 whole entry R146V/R147D/R148G/A164G): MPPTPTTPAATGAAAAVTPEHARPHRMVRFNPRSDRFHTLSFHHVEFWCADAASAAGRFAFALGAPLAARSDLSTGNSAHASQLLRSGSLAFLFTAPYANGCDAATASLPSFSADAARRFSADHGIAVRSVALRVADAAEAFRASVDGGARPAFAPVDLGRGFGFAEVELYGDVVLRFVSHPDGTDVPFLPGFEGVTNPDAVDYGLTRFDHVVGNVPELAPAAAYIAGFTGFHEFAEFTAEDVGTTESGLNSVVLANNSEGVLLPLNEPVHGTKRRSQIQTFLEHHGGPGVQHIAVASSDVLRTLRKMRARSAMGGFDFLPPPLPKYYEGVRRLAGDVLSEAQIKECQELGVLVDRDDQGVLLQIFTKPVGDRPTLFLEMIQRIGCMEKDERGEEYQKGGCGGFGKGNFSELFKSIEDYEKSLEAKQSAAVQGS
Protocol: as §1, §2, §3, §4, §5, §6, §7

[2] = test system: transgenic Arabidopsis plants; assay: Greenhouse testing of transgenic Arabidopsis plants (T2), herbicide spray test; type: in vivo, Arabidopsis thaliana; conditions: for Injury evaluation, scale 0-100%: Arabidopsis
Protocol: Transgenic plants expressing heterologous HPPD or HST enzymes are tested for tolerance against HPPD-inhibiting herbicides in greenhouse experiments.
For post emergence treatment, the test plants are first grown to a height of 3 to 15 cm, depending on the plant habit, and only then treated with the herbicides. For this purpose, the test plants are either sown directly and grown in the same containers, or they are first grown separately and transplanted into the test containers a few days prior to treatment. For testing of T0 plants, cuttings can be used. In the case of soybean plants, an optimal shoot for cutting is about 7.5 to 10 cm tall, with at least two nodes present. Each cutting is taken from the original transformant (mother plant) and dipped into rooting hormone powder (indole-3-butyric acid, IBA). The cutting is then placed in oasis wedges inside a bio-dome. Wild type cuttings are also taken simultaneously to serve as controls. The cuttings are kept in the bio-dome for 5-7 days and then transplanted to pots and then acclimated in the growth chamber for two more days. Subsequently, the cuttings are transferred to the greenhouse, acclimated for approximately 4 days, and then subjected to spray tests as indicated.
Additionally, T1 and T2 transgenic Arabidopsis plants can be tested for improved tolerance to HPPD-inhibiting herbicides in a greenhouse studies. Herbicide injury scoring is done 2-3 weeks after treatment and is rated on a scale of 0 to 100%, 0% being no injury and 100% being complete death.

CSc1c(Cl)cc(F)c(C(=O)Nc2nnnn2C)c1Cl [Inhibitor 2, 2,4-dichloro-6-fluoro-3-methylsulfanyl-N-(1-methyltetrazol-5-yl)benzamide]
Ki (Arabidopsis HPPD): 20 nM
Ki [1]: 11 nM
tolerance factor ([2]; Arabidopsis HvL320H, P321A, highest rate active ingredient applied): outstanding tolerance factor
tolerance compared to untransformed wild-type control ([2]; Arabidopsis expressing Rhodococcus HPPD (SEQ ID NO:46), highest concentration): 2 fold
Injury evaluation, scale 0-100% ([2]; transgene AtF381I, 3.125 g/ha, two weeks): 20%
Injury evaluation, scale 0-100% ([2]; transgene AtF381I, 6.25 g/ha, two weeks): 25%
Injury evaluation, scale 0-100% ([2]; transgene AtF381I, 12.5 g/ha, two weeks): 40%
Injury evaluation, scale 0-100% ([2]; transgene AtM335H, P336A, E363Q, 1.56 g/ha, two weeks): 0%
Injury evaluation, scale 0-100% ([2]; transgene AtM335H, P336A, E363Q, 3.125 g/ha, two weeks): 7%
Injury evaluation, scale 0-100% ([2]; transgene AtM335H, P336A, E363Q, 6.25 g/ha, two weeks): 7%
Injury evaluation, scale 0-100% ([2]; transgene AtM335H, P336A, E363Q, 12.5 g/ha, two weeks): 47%
Injury evaluation, scale 0-100% ([2]; transgene HvL320H, P321A, 1.56 g/ha, two weeks): 0%
Injury evaluation, scale 0-100% ([2]; transgene HvL320H, P321A, 3.125 g/ha, two weeks): 5%
Injury evaluation, scale 0-100% ([2]; transgene HvL320H, P321A, 6.25 g/ha, two weeks): 7%
Injury evaluation, scale 0-100% ([2]; transgene HvL320H, P321A, 12.5 g/ha, two weeks): 8%
Injury evaluation, scale 0-100% ([2]; transgene HvL320H, 1.56 g/ha, two weeks): 0%
Injury evaluation, scale 0-100% ([2]; transgene HvL320H, 3.125 g/ha, two weeks): 12%
Injury evaluation, scale 0-100% ([2]; transgene HvL320H, 6.25 g/ha, two weeks): 18%
Injury evaluation, scale 0-100% ([2]; transgene HvL320H, 12.5 g/ha, two weeks): 33%
Injury evaluation, scale 0-100% ([2]; transgene None, 1.56 g/ha, two weeks after treatment): 86%
Injury evaluation, scale 0-100% ([2]; transgene None, 3.125 g/ha, two weeks after treatment): 87%
Injury evaluation, scale 0-100% ([2]; transgene None, 6.25 g/ha, two weeks after treatment): 98%
Injury evaluation, scale 0-100% ([2]; transgene None, 12.5 g/ha, two weeks after treatment): 94%
Injury evaluation, scale 0-100% ([2]; transgene RjHPPD, 1.56 g/ha, two weeks): 2%
Injury evaluation, scale 0-100% ([2]; transgene RjHPPD, 3.125 g/ha, two weeks): 12%
Injury evaluation, scale 0-100% ([2]; transgene RjHPPD, 6.25 g/ha, two weeks): 13%
Injury evaluation, scale 0-100% ([2]; transgene RjHPPD, 12.5 g/ha, two weeks): 46%

O=C(O)C(=O)Cc1ccc(O)cc1 [Inhibitor 4-HPP, 4-hydroxyphenylpyruvate, reference compound]
Km (Arabidopsis HPPD; Arabidopsis HPPD, apparent michaelis constant, read-out: Km (4-HPP)): 13 µM
kcat (Arabidopsis HPPD; Arabidopsis HPPD, turnover number, substrate 4-HPP): 12.9 s⁻¹
Km ([1]; Hordeum HPPD, apparent michaelis constant, read-out: Km (4-HPP)): 26 µM
kcat ([1]; Hordeum HPPD, turnover number, substrate 4-HPP): 11.5 s⁻¹
